We go through ten molecules from ChEMBL document CHEMBL1201862, “PubChem BioAssay data set” (2004).

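Growth conditions: 96-well plates. Treatment: test compound, 48 hours, 5 concentrations. Analysis: linear interpolation between bracketing concentrations; unreached endpoints set to highest concentration. Here, GI50 denotes the concentration required for 50% inhibition of growth.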 Activity calls are given as the source filed them. Cut-off read from the data, not from the text of the source: active = GI50 up to about 1.1 µM and inactive = higher. Square brackets hold non-standard residues; d marks the D form. Peptide text beside a SMILES is read from it. Phe(4-Cl) = N[CH](Cc1ccc(Cl)cc1)C(=O)O; 2Nal = N[CH](Cc1ccc2ccccc2c1)C(=O)O; 3Pal = N[CH](Cc1cccnc1)C(=O)O

Some test systems named below: 786-0; ACHN; BT-549; CCRF-CEM; DU-145; HCT-116; HL-60; HOP-92; Hs-578T; IGROV-1; K562; M14; MCF7; MOLT-4; Malme-3M; NCI-H23; PC-3; SF-295; SNB-75; UACC-62.
Assay in all cases: NCI-60 cell line screen, 48 h

For `CCOc1cc(C2CC(c3ccc(NS(=O)(=O)c4cc([N+](=O)[O-])ccc4C)cc3)=NN2c2ccc([N+](=O)[O-])cc2[N+](=O)[O-])ccc1O` (stereo not drawn), the GI50 with 786-0 is 2.58 µM (inactive); with ACHN it was 6.76 µM (inactive); in the test with BT-549 it was 18 µM (inactive); with CCRF-CEM, 43.7 µM (inactive); in the test with DU-145 it was 12.8 µM (inactive); with HCT-116, 8.65 µM (inactive). Moreover, the GI50 in the test with HL-60 was 40.9 µM (inactive); in the test with HOP-92, 10.4 µM (inactive); with Hs-578T, 12.9 µM (inactive); in the test with IGROV-1, 12.5 µM (inactive); in the test on K562 it was 21.3 µM (inactive); in the test with M14 it was 12.3 µM (inactive). The GI50 in the test on MCF7 was 7.46 µM (inactive); in the test with MOLT-4 it was 23.3 µM (inactive); with Malme-3M it was 8.57 µM (inactive); in the test with NCI-H23 it was 16.7 µM (inactive); with PC-3 it was 20 µM (inactive); with SF-295 it was 12.1 µM (inactive). Further, the GI50 in the test on SNB-75 was 5.82 µM (inactive).
As for `CC1=NN(c2nc(N)nc(NS(=O)(=O)c3cc(C)c(Cl)cc3S)n2)C(C)(C)C1`, the GI50 with 786-0, in the test with ACHN, in the test with BT-549, with CCRF-CEM, in the test with DU-145 and with HCT-116 was > 10 µM (inactive) throughout. Moreover, the GI50 with HL-60, in the test on HOP-92, in the test on Hs-578T, with IGROV-1, with K562 and with M14 was > 10 µM (inactive) throughout. For the same molecule, the GI50 with MCF7, in the test with MOLT-4, in the test with Malme-3M, in the test on NCI-H23, in the test on PC-3 and in the test with SF-295 was > 10 µM (inactive) throughout. In addition, in the test on SNB-75, the GI50 is > 10 µM (inactive).
For `O=C(NCCSSCCNC(=O)/C(Cc1ccc(O)c(Br)c1)=N/O)/C(Cc1ccc(O)c(Br)c1)=N/O` [PSAMMAPLIN A], the GI50 with 786-0 is 2.07 µM (inactive); with ACHN it was 1.62 µM (inactive); in the test with BT-549 it was 6.21 µM (inactive); with CCRF-CEM it was 0.377 µM (active); in the test with DU-145, 1.89 µM (inactive); with HCT-116, 1.39 µM (inactive). For the same molecule, the GI50 in the test with HL-60 is 0.426 µM (active); in the test with HOP-92, 4.01 µM (inactive); with Hs-578T, 1.77 µM (inactive); with IGROV-1 it was 1.17 µM (inactive); in the test on K562, 1.81 µM (inactive); in the test with M14, 1.32 µM (inactive). Moreover, the GI50 was 2.02 µM (inactive) with MCF7; 0.402 µM (active) in the test with MOLT-4; 0.597 µM (active) in the test with Malme-3M; 3.2 µM (inactive) in the test on NCI-H23; 1.61 µM (inactive) with PC-3; 1.34 µM (inactive) in the test on SF-295. Also, the GI50 with SNB-75 was 0.889 µM (active); with UACC-62, 1.72 µM (inactive).
On to `COC1C(C)OC(OC2CC(C)(O)Cc3cc4c(c(O)c32)C(=O)c2c(O)cc3c(c2C4=O)OC2OC3(C)C(O)C(N(C)C)C2O)C(OC)C1(C)OC` (stereo not drawn), for which the GI50 in the test with 786-0 was 0.0861 µM (active); in the test on BT-549, 0.000257 µM (active); in the test on CCRF-CEM, 0.00475 µM (active); with DU-145, 0.000809 µM (active); in the test on HCT-116 it was 0.015 µM (active); with HL-60 it was 0.00541 µM (active). In addition, the GI50 is 0.0333 µM (active) with HOP-92; 5.79e-05 µM (active) in the test on Hs-578T; 0.0197 µM (active) with IGROV-1; 0.00438 µM (active) in the test on K562; 0.00479 µM (active) with M14; 0.0331 µM (active) in the test on MCF7. Besides, the GI50 in the test with MOLT-4 is 0.00469 µM (active); in the test on Malme-3M it was 0.0561 µM (active); in the test with NCI-H23, 0.00496 µM (active); in the test with PC-3 it was 0.000204 µM (active); in the test on SF-295, 0.0047 µM (active); with SNB-75, 0.0165 µM (active). In addition, in the test with UACC-62, the GI50 is 0.016 µM (active).
As for `O=S1(=O)C(c2ccccc2)C(N2CCCCC2)C1C1CC2c3ccccc3C1c1ccccc12` (stereo not drawn), the GI50 was > 100 µM (inactive) in the test on 786-0; > 100 µM (inactive) in the test with ACHN; > 100 µM (inactive) in the test on BT-549; 2.45 µM (inactive) in the test on CCRF-CEM; > 100 µM (inactive) in the test on DU-145; 5.69 µM (inactive) with HCT-116. Moreover, the GI50 in the test with HL-60 is 2.86 µM (inactive); in the test on HOP-92, 8.81 µM (inactive); in the test with Hs-578T, > 100 µM (inactive); with IGROV-1, > 94 µM (inactive); in the test on K562, 5.56 µM (inactive); with M14 it was > 100 µM (inactive). Also, the GI50 in the test on MCF7 was 30.8 µM (inactive); with MOLT-4, 5.47 µM (inactive); in the test on Malme-3M, > 100 µM (inactive); in the test with NCI-H23, > 100 µM (inactive); in the test with PC-3, > 30 µM (inactive); in the test with SF-295 it was > 100 µM (inactive). In addition, the GI50 with SNB-75 and with UACC-62 was > 100 µM (inactive) throughout.
`Cc1cc2nc3c(C#N)c(C)c(CCCl)c(Cl)n3c2cc1C`: the GI50 in the test with 786-0 is 2 µM (inactive); in the test with ACHN, 5.3 µM (inactive); in the test with BT-549 it was 2.49 µM (inactive); in the test on CCRF-CEM, 2.34 µM (inactive); in the test on DU-145, 3.84 µM (inactive); with HCT-116 it was 1.57 µM (inactive). Besides, the GI50 in the test on HL-60 is 2.55 µM (inactive); with HOP-92, 2.04 µM (inactive); in the test on Hs-578T, 3.23 µM (inactive); in the test on IGROV-1, 2.09 µM (inactive); in the test on K562, 2.39 µM (inactive); in the test on M14 it was 2.27 µM (inactive). Besides, the GI50 with MCF7 is 2.9 µM (inactive); with MOLT-4 it was 2.08 µM (inactive); in the test on Malme-3M, 2.96 µM (inactive); in the test with NCI-H23 it was 2.12 µM (inactive); in the test on PC-3, 5.6 µM (inactive); with SF-295 it was 3.49 µM (inactive). Besides, the GI50 in the test on SNB-75 is 1.87 µM (inactive); with UACC-62 it was 1.93 µM (inactive).
For `COc1ccc(C(c2ccccc2)N2C(=O)CCC2C(=O)O)cc1OC` (stereo not drawn), the GI50 with 786-0, in the test on ACHN, in the test with BT-549, in the test on CCRF-CEM, in the test on DU-145 and in the test with HCT-116 was > 100 µM (inactive) in each case. The GI50 in the test with HL-60, in the test on HOP-92, in the test with Hs-578T, with IGROV-1, with K562 and with M14 was > 100 µM (inactive) each time. Besides, the GI50 in the test with MCF7, with MOLT-4, with Malme-3M, in the test on NCI-H23, with PC-3 and in the test with SF-295 was > 100 µM (inactive) throughout. Besides, the GI50 in the test with SNB-75 and in the test on UACC-62 was > 100 µM (inactive) throughout.
Turning to `[O-]c1c[n+](-c2ccccc2)no1`, the GI50 with 786-0, with ACHN, in the test with BT-549, with CCRF-CEM, with DU-145 and in the test with HCT-116 was > 100 µM (inactive) throughout. Besides, the GI50 in the test with HL-60, in the test on HOP-92, in the test with Hs-578T, in the test with IGROV-1, in the test with K562 and in the test on M14 was > 100 µM (inactive) each time. Further, the GI50 with MCF7, in the test on Malme-3M, with NCI-H23, in the test with PC-3, in the test on SF-295 and in the test with SNB-75 was > 100 µM (inactive) throughout. For the same molecule, the GI50 in the test with UACC-62 was > 100 µM (inactive).
Turning to `Cc1nc2ccc(Cl)cc2c2c1CCN2c1ccccc1`, the GI50 in the test on 786-0 was 10.4 µM (inactive); in the test on ACHN it was 16.9 µM (inactive); in the test on BT-549, 15.3 µM (inactive); in the test on CCRF-CEM it was 5.62 µM (inactive); with DU-145, 19.5 µM (inactive); in the test with HCT-116 it was 3.61 µM (inactive). The GI50 in the test on HL-60 is 2.72 µM (inactive); in the test with HOP-92, 8.59 µM (inactive); in the test with Hs-578T, 21 µM (inactive); in the test on IGROV-1, 14.3 µM (inactive); with K562 it was 5.05 µM (inactive); with MCF7, 15.1 µM (inactive). The GI50 was 7.03 µM (inactive) in the test with MOLT-4; 17.4 µM (inactive) with Malme-3M; 14.1 µM (inactive) in the test with NCI-H23; 10.6 µM (inactive) in the test with PC-3; 5.47 µM (inactive) in the test on SF-295; 23.7 µM (inactive) in the test on SNB-75. Further, the GI50 in the test on UACC-62 is 10.3 µM (inactive).
As for `CC(=O)NC(Cc1ccc2ccccc2c1)C(=O)NC(Cc1ccc(Cl)cc1)C(=O)NC(Cc1cccnc1)C(=O)NC(CO)C(=O)NC(Cc1ccc(O)cc1)C(=O)NC(CCCN=C(N)N)C(=O)NC(CC(C)C)C(=O)NC(CCCN=C(N)N)C(=O)N1CCCC1C(=O)NC(C)C(N)=O` (stereo not drawn) (Ac-[2Nal][Phe(4-Cl)][3Pal]SYRLRPA-NH2; configuration not given here), the GI50 in the test on 786-0 is 69.7 µM (inactive); in the test on ACHN, > 100 µM (inactive); in the test on BT-549 it was > 100 µM (inactive); in the test with CCRF-CEM, > 100 µM (inactive); in the test with DU-145, > 100 µM (inactive); with HL-60, > 100 µM (inactive). Further, the GI50 was > 100 µM (inactive) in the test with HOP-92; 50.2 µM (inactive) in the test with Hs-578T; > 100 µM (inactive) with IGROV-1; > 100 µM (inactive) in the test on K562; > 100 µM (inactive) with M14; > 100 µM (inactive) in the test on MCF7. The GI50 in the test on MOLT-4 is > 100 µM (inactive); with Malme-3M, 28.8 µM (inactive); in the test on NCI-H23 it was > 100 µM (inactive); in the test on PC-3, > 100 µM (inactive); with SNB-75 it was 88.9 µM (inactive); in the test on UACC-62, 77.4 µM (inactive).
